Measured values: PMC6158578, “Optimization and Lead Selection of Benzothiazole Amide Analogs Toward a Novel Antimycobacterial Agent” (Frontiers in Microbiology, 2018)
Values after ≈ are worked out from the molar mass of the structure shown.

Assays:
Assay in all cases: microbe, parasite or virus in culture
Format in all cases: cell-based, M. tuberculosis
Settings in all cases: Mycobacterium tuberculosis
[1] = system: Isoniazid-resistant Mtb strain 2
[2] = system: Isoniazid-resistant Mtb strain 1
[3] = system: Rifampin-resistant Mtb strain 1
[4] = system: Fluoroquinolone-resistant Mtb
[5] = system: Rifampin-resistant Mtb strain 2

CC12CC3CC(C)(C1)CC(C(=O)Nc1nc4ccc(OC(F)(F)F)cc4s1)(C3)C2 [CRS400226]
IC90 [1]: 4.2 µg/mL (≈ 9.89 µM)
IC90 [2]: 3.9 µg/mL (≈ 9.19 µM)
IC90 [3]: 3.9 µg/mL (≈ 9.19 µM)
IC90 [4]: 3.7 µg/mL (≈ 8.72 µM)
IC90 [5]: 4.7 µg/mL (≈ 11.1 µM)
